What follows are compounds tested on MCH receptors (assay: MCH receptor activity class (method not given)). Conditions: MCH receptor activity class 1-3 (percent of control at 10^-7 M or IC50).

SMILES	class
CN(C)c1ccnc(N[C@H]2CC[C@@H](CNC(=O)Nc3ccc(F)c(F)c3)CC2)n1 [compound 2448]	1 (Class 1: The value of percent of control at 10^−7 M was less than 40% or the value of IC50 was less than 50 nM.)
CN(C)c1ccnc(N[C@H]2CC[C@@H](CNC(=O)Nc3cc(F)cc(F)c3)CC2)n1 [compound 2449]	1 (Class 1: The value of percent of control at 10^−7 M was less than 40% or the value of IC50 was less than 50 nM.)
CN(C)c1ccnc(N[C@H]2CC[C@@H](CNC(=O)Nc3ccc(F)c(Cl)c3)CC2)n1 [compound 2450, N-(3-chloro-4-fluorophenyl)-N′-[(cis-4-{[4-(dimethylamino)pyrimidin-2-yl]amino}cyclohexyl)methyl]urea]	1 (Class 1: The value of percent of control at 10^−7 M was less than 40% or the value of IC50 was less than 50 nM.)
CN(C)c1nc(N[C@H]2CC[C@@H](CNC(=O)Nc3ccccc3Cl)CC2)nc2c1CCCC2 [compound 2451]	3 (Class 3 The value of percent of control at 10^−7 M was more than 60% or the value of IC50 was more than 200 nM.)
Cc1cccc(C)c1NC(=O)NC[C@H]1CC[C@@H](Nc2nc3c(c(N(C)C)n2)CCCC3)CC1 [compound 2452]	1 (Class 1: The value of percent of control at 10^−7 M was less than 40% or the value of IC50 was less than 50 nM.)
CN(C)c1nc(N[C@H]2CC[C@@H](CNC(=O)Nc3ccc(F)cc3F)CC2)nc2c1CCCC2 [compound 2453]	2 (Class 2: The value of percent of control at 10^−7 M was from 40% to 60% or the value of IC′50 was from 50 nM to 200 nM.)
CCc1cccc(C)c1NC(=O)NC[C@H]1CC[C@@H](Nc2nc3c(c(N(C)C)n2)CCCC3)CC1 [compound 2454]	1 (Class 1: The value of percent of control at 10^−7 M was less than 40% or the value of IC50 was less than 50 nM.)
CN(C)c1nc(N[C@H]2CC[C@@H](CNC(=O)Nc3ccc(F)cc3)CC2)nc2c1CCCC2 [compound 2456]	2 (Class 2: The value of percent of control at 10^−7 M was from 40% to 60% or the value of IC′50 was from 50 nM to 200 nM.)
CSc1ccc(NC(=O)NC[C@H]2CC[C@@H](Nc3nc4c(c(N(C)C)n3)CCCC4)CC2)cc1 [compound 2457]	3 (Class 3 The value of percent of control at 10^−7 M was more than 60% or the value of IC50 was more than 200 nM.)
CN(C)c1nc(N[C@H]2CC[C@@H](CNC(=O)Nc3ccccc3C(F)(F)F)CC2)nc2c1CCCC2 [compound 2458]	3 (Class 3 The value of percent of control at 10^−7 M was more than 60% or the value of IC50 was more than 200 nM.)
Cc1cc(C)c(NC(=O)NC[C@H]2CC[C@@H](Nc3nc4c(c(N(C)C)n3)CCCC4)CC2)c(C)c1 [compound 2459]	1 (Class 1: The value of percent of control at 10^−7 M was less than 40% or the value of IC50 was less than 50 nM.)
Cc1ccccc1NC(=O)NC[C@H]1CC[C@@H](Nc2nc3c(c(N(C)C)n2)CCCC3)CC1 [compound 2460]	3 (Class 3 The value of percent of control at 10^−7 M was more than 60% or the value of IC50 was more than 200 nM.)
CN(C)c1nc(N[C@H]2CC[C@@H](CNC(=O)Nc3c(Cl)cc(Cl)cc3Cl)CC2)nc2c1CCCC2 [compound 2461]	1 (Class 1: The value of percent of control at 10^−7 M was less than 40% or the value of IC50 was less than 50 nM.)
CN(C)c1nc(N[C@H]2CC[C@@H](CNC(=O)Nc3c(Br)cc(Br)cc3Br)CC2)nc2c1CCCC2 [compound 2462]	1 (Class 1: The value of percent of control at 10^−7 M was less than 40% or the value of IC50 was less than 50 nM.)
CN(C)c1nc(N[C@H]2CC[C@@H](CNC(=O)Nc3c(F)cc(Br)cc3Br)CC2)nc2c1CCCC2 [compound 2463]	3 (Class 3 The value of percent of control at 10^−7 M was more than 60% or the value of IC50 was more than 200 nM.)
CCc1cccc(CC)c1NC(=O)NC[C@H]1CC[C@@H](Nc2nc3c(c(N(C)C)n2)CCCC3)CC1 [compound 2464]	1 (Class 1: The value of percent of control at 10^−7 M was less than 40% or the value of IC50 was less than 50 nM.)
CN(C)c1nc(N[C@H]2CC[C@@H](CNC(=O)Nc3c(Cl)cccc3C(F)(F)F)CC2)nc2c1CCCC2 [compound 2465]	1 (Class 1: The value of percent of control at 10^−7 M was less than 40% or the value of IC50 was less than 50 nM.)
Cc1cccc(Cl)c1NC(=O)NC[C@H]1CC[C@@H](Nc2nc3c(c(N(C)C)n2)CCCC3)CC1 [compound 2466, N-(2-chloro-6-methylphenyl)-N′-[(cis-4-{[4-(dimethylamino)-5,6,7,8-tetrahydroquinazolin-2-yl]amino}cyclohexyl)methyl]urea]	1 (Class 1: The value of percent of control at 10^−7 M was less than 40% or the value of IC50 was less than 50 nM.)
CN(C)c1nc(N[C@H]2CC[C@@H](CNC(=O)NCc3ccccc3Cl)CC2)nc2c1CCCC2 [compound 2467]	3 (Class 3 The value of percent of control at 10^−7 M was more than 60% or the value of IC50 was more than 200 nM.)
CCc1cccc(C(C)C)c1NC(=O)NC[C@H]1CC[C@@H](Nc2nc3c(c(N(C)C)n2)CCCC3)CC1 [compound 2468]	1 (Class 1: The value of percent of control at 10^−7 M was less than 40% or the value of IC50 was less than 50 nM.)
CCc1ccccc1NC(=O)NC[C@H]1CC[C@@H](Nc2nc3c(c(N(C)C)n2)CCCC3)CC1 [compound 2469]	3 (Class 3 The value of percent of control at 10^−7 M was more than 60% or the value of IC50 was more than 200 nM.)
CN(C)c1nc(N[C@H]2CC[C@@H](CNC(=O)Nc3ccccc3I)CC2)nc2c1CCCC2 [compound 2470]	3 (Class 3 The value of percent of control at 10^−7 M was more than 60% or the value of IC50 was more than 200 nM.)
Cc1cccc(C(C)C)c1NC(=O)NC[C@H]1CC[C@@H](Nc2nc3c(c(N(C)C)n2)CCCC3)CC1 [compound 2471]	2 (Class 2: The value of percent of control at 10^−7 M was from 40% to 60% or the value of IC′50 was from 50 nM to 200 nM.)
CC(C)c1ccccc1NC(=O)NC[C@H]1CC[C@@H](Nc2nc3c(c(N(C)C)n2)CCCC3)CC1 [compound 2472]	3 (Class 3 The value of percent of control at 10^−7 M was more than 60% or the value of IC50 was more than 200 nM.)
Cc1c(NC(=O)NC[C@H]2CC[C@@H](Nc3nc4c(c(N(C)C)n3)CCCC4)CC2)cccc1[N+](=O)[O-] [compound 2473]	3 (Class 3 The value of percent of control at 10^−7 M was more than 60% or the value of IC50 was more than 200 nM.)
CCCc1ccccc1NC(=O)NC[C@H]1CC[C@@H](Nc2nc3c(c(N(C)C)n2)CCCC3)CC1 [compound 2474]	3 (Class 3 The value of percent of control at 10^−7 M was more than 60% or the value of IC50 was more than 200 nM.)
Cc1cccc(C(C)(C)C)c1NC(=O)NC[C@H]1CC[C@@H](Nc2nc3c(c(N(C)C)n2)CCCC3)CC1 [compound 2475, N-(2-tert-butyl-6-methylphenyl)-N′-[(cis-4-{[4-(dimethylamino)-5,6,7,8-tetrahydroquinazolin-2-yl]amino}cyclohexyl)methyl]urea]	1 (Class 1: The value of percent of control at 10^−7 M was less than 40% or the value of IC50 was less than 50 nM.)
CN(C)c1nc(N[C@H]2CC[C@@H](CNC(=O)Nc3ccccc3C(C)(C)C)CC2)nc2c1CCCC2 [compound 2476]	2 (Class 2: The value of percent of control at 10^−7 M was from 40% to 60% or the value of IC′50 was from 50 nM to 200 nM.)

— patent US20050197350A1, “Novel quinoline, tetrahydroquinazoline, and pyrimidine derivatives and methods of treatment related to the use thereof” (TAISHO PHARMACEUTICAL CO., LTD., priority 2003, published 2005)
